Measured values taken from patent US20100184699A1, “Peptide Derived From Prostate-Related Protein As Cancer Vaccine Candidate For Prostate Cancer Patient Who Is Positive For Hla-A3 Super-Type Allele Molecule” (priority 2005, published 2010).
“And” between values parts separate entries of the source, which are not always exact repeats. Identical values can stand only once. Like-named read-outs stand apart in the source and are kept apart here.

Key:
[1] = tested on: peptide-specific IgG in plasma of prostate cancer patients and healthy donors; assay: Detection of peptide-specific IgG in plasma by ELISA; format: binding, human; settings: for IgG reactive to peptide in plasma: 1:100-diluted plasma
[2] = tested on: C1R-A11, -A31 or -A33 cells pulsed with corresponding peptide; assay: Induction of peptide-specific CTLs from PBMCs (IFN-γ ELISA); format: cell-based, human; settings: for IFN-γ production, HIV peptide background subtracted: day 15, significant values only
[3] = Prostate cancer patient 12, A11
[4] = Prostate cancer patient 13, A11
[5] = Prostate cancer patient 14, A33
[6] = Prostate cancer patient 17, A33
[7] = Prostate cancer patient 19, A33

EIASKFSER [PSMA 641-649] was tested, and the “IgG reactive to peptide in plasma” value ([1]; Healthy donor 9, A11) was “+ (IgG reactive to a corresponding peptide was judged to be positive when a difference of the optical density (OD) in a 1:100-diluted plasma was more than 100)”, the “IgG reactive to peptide in plasma, Total (positive/tested)” value (“IgG reactive … (positive/tested)” for short) ([1]; Healthy donors) was 1/9 and the “IgG reactive to peptide in plasma” value ([1]; Prostate cancer patient 4, A31) was “+ (IgG reactive to a corresponding peptide was judged to be positive when a difference of the optical density (OD) in a 1:100-diluted plasma was more than 100)”. For the same sequence, the “IgG reactive to peptide in plasma” value ([1]; Prostate cancer patient 5, A31) was “+ (IgG reactive to a corresponding peptide was judged to be positive when a difference of the optical density (OD) in a 1:100-diluted plasma was more than 100)”, the “IgG reactive to peptide in plasma” value ([1]; Prostate cancer patient 6, A31) was “+ (IgG reactive to a corresponding peptide was judged to be positive when a difference of the optical density (OD) in a 1:100-diluted plasma was more than 100)” and the “IgG reactive to peptide in plasma” value ([1]; Prostate cancer patient 8, A11) was “+ (IgG reactive to a corresponding peptide was judged to be positive when a difference of the optical density (OD) in a 1:100-diluted plasma was more than 100)”. For the same sequence, the “IgG reactive to peptide in plasma” value ([1]; Prostate cancer patient 9, A11) was “+ (IgG reactive to a corresponding peptide was judged to be positive when a difference of the optical density (OD) in a 1:100-diluted plasma was more than 100)”, the “IgG reactive to peptide in plasma” value ([1]; Prostate cancer patient 10, A11) was “+ (IgG reactive to a corresponding peptide was judged to be positive when a difference of the optical density (OD) in a 1:100-diluted plasma was more than 100)” and the “IgG reactive to peptide in plasma” value [1, 3] was “+ (IgG reactive to a corresponding peptide was judged to be positive when a difference of the optical density (OD) in a 1:100-diluted plasma was more than 100)”. For the same sequence, the “IgG reactive to peptide in plasma” value [1, 4] was “+ (IgG reactive to a corresponding peptide was judged to be positive when a difference of the optical density (OD) in a 1:100-diluted plasma was more than 100)”, the “IgG reactive to peptide in plasma” value [1, 5] was “+ (IgG reactive to a corresponding peptide was judged to be positive when a difference of the optical density (OD) in a 1:100-diluted plasma was more than 100)” and the “IgG reactive to peptide in plasma” value [1, 6] was “+ (IgG reactive to a corresponding peptide was judged to be positive when a difference of the optical density (OD) in a 1:100-diluted plasma was more than 100)”. The “IgG reactive to peptide in plasma” value ([1]; Prostate cancer patient 18, A33) was “+ (IgG reactive to a corresponding peptide was judged to be positive when a difference of the optical density (OD) in a 1:100-diluted plasma was more than 100)”, the “IgG reactive to peptide in plasma” value [1, 7] was “+ (IgG reactive to a corresponding peptide was judged to be positive when a difference of the optical density (OD) in a 1:100-diluted plasma was more than 100)” and the “IgG reactive to peptide in plasma” value ([1]; Prostate cancer patient 20, A33) was “+ (IgG reactive to a corresponding peptide was judged to be positive when a difference of the optical density (OD) in a 1:100-diluted plasma was more than 100)”. For the same sequence, the “IgG reactive … (positive/tested)” value ([1]; Prostate cancer patients) was 13/20, the “frequency of detection of peptide-reactive IgG” value ([1]; plasma of prostate cancer patients, compared within PSA, PAP or PSMA peptides) was “more frequently” and the “Total (positive / tested)” value [2] was 1/13 and 2/9.

In the case of “LLGPGRPYR (TRP2-derived peptide) [reference compound]”, the “IFN-γ production, HIV peptide background subtracted” value (“IFN-γ production” below) ([2]; healthy donor 1, A31) is reported as 143 pg/mL, the “IFN-γ production” value ([2]; healthy donor 4, A31) is reported as 180 pg/mL and the “IFN-γ production” value ([2]; healthy donor 6, A33) is reported as 90 pg/mL. The “IFN-γ production” value ([2]; healthy donor 9, A11) was 182 pg/mL, the “IFN-γ production” value ([2]; healthy donor 10, A11) was 207 pg/mL and the “IFN-γ production” value ([2]; healthy donor 14, A11) was 94 pg/mL. The “Total (positive / tested)” value ([2]; healthy donors) was 6/9, the “IFN-γ production” value ([2]; prostate cancer patient 9, A11) was 155 pg/mL and the “IFN-γ production” value ([2]; prostate cancer patient 15, A33) was 292 pg/mL. For the same sequence, the “IFN-γ production” value ([2]; prostate cancer patient 17, A33) was 1093 pg/mL, the “IFN-γ production” value ([2]; prostate cancer patient 19, A33) was 115 pg/mL and the “IFN-γ production” value ([2]; prostate cancer patient 22, A31) was 115 pg/mL. The “Total (positive / tested)” value ([2]; prostate cancer patients) was 5/13.

With “NVKNLYEKVK (Flu-derived peptide) [reference compound]” the “Total (positive / tested)” value [2] was 8/13 and 5/9.

“VTLVFRHGDR (PAP 38-47) [PAP-derived peptide]” was tested, and the “IgG reactive to peptide in plasma” value ([1]; Healthy donor 8, A31) was “+ (IgG reactive to a corresponding peptide was judged to be positive when a difference of the optical density (OD) in a 1:100-diluted plasma was more than 100)”, the “IgG reactive … (positive/tested)” value ([1]; Healthy donors) was 1/9 and the “IgG reactive to peptide in plasma” value ([1]; Prostate cancer patient 9, A11) was “+ (IgG reactive to a corresponding peptide was judged to be positive when a difference of the optical density (OD) in a 1:100-diluted plasma was more than 100)”. For the same sequence, the “IgG reactive … (positive/tested)” value ([1]; Prostate cancer patients) was 1/20.

With “VYIRSTDVDR (PAP 102-111) [PAP-derived peptide]” the “IgG reactive … (positive/tested)” value ([1]; Healthy donors) was 0/9, the “IgG reactive to peptide in plasma” value [1, 4] was “+ (IgG reactive to a corresponding peptide was judged to be positive when a difference of the optical density (OD) in a 1:100-diluted plasma was more than 100)” and the “IgG reactive to peptide in plasma” value [1, 5] was “+ (IgG reactive to a corresponding peptide was judged to be positive when a difference of the optical density (OD) in a 1:100-diluted plasma was more than 100)”. The “IgG reactive … (positive/tested)” value ([1]; Prostate cancer patients) was 2/20.

With WVLTAAHCIR [PSA 59-68] the “IgG reactive … (positive/tested)” value ([1]; Healthy donors) was 0/9 and the “IgG reactive … (positive/tested)” value ([1]; Prostate cancer patients) was 0/20.

For “YPANEYAYRR (PSMA 272-281) [PSMA-derived peptide]”, the “IgG reactive … (positive/tested)” value ([1]; Healthy donors) was 0/9, the “IgG reactive to peptide in plasma” value ([1]; Prostate cancer patient 2, A31) was “+ (IgG reactive to a corresponding peptide was judged to be positive when a difference of the optical density (OD) in a 1:100-diluted plasma was more than 100)” and the “IgG reactive to peptide in plasma” value ([1]; Prostate cancer patient 4, A31) was “+ (IgG reactive to a corresponding peptide was judged to be positive when a difference of the optical density (OD) in a 1:100-diluted plasma was more than 100)”. For the same sequence, the “IgG reactive to peptide in plasma” value ([1]; Prostate cancer patient 6, A31) was “+ (IgG reactive to a corresponding peptide was judged to be positive when a difference of the optical density (OD) in a 1:100-diluted plasma was more than 100)”, the “IgG reactive to peptide in plasma” value ([1]; Prostate cancer patient 9, A11) was “+ (IgG reactive to a corresponding peptide was judged to be positive when a difference of the optical density (OD) in a 1:100-diluted plasma was more than 100)” and the “IgG reactive to peptide in plasma” value [1, 3] was “+ (IgG reactive to a corresponding peptide was judged to be positive when a difference of the optical density (OD) in a 1:100-diluted plasma was more than 100)”. The “IgG reactive to peptide in plasma” value [1, 5] was “+ (IgG reactive to a corresponding peptide was judged to be positive when a difference of the optical density (OD) in a 1:100-diluted plasma was more than 100)”, the “IgG reactive to peptide in plasma” value [1, 6] was “+ (IgG reactive to a corresponding peptide was judged to be positive when a difference of the optical density (OD) in a 1:100-diluted plasma was more than 100)” and the “IgG reactive to peptide in plasma” value [1, 7] was “+ (IgG reactive to a corresponding peptide was judged to be positive when a difference of the optical density (OD) in a 1:100-diluted plasma was more than 100)”. For the same sequence, the “IgG reactive … (positive/tested)” value ([1]; Prostate cancer patients) was 8/20.
